26 molecules from patent US20100120730A1, “6-BENZYL-2,3,4,7-TETRAHYDRO-INDOLO [2,3-C] QUINOLINE COMPOUNDS USEFUL AS PDE5 INHIBITORS” (NYCOMED GmbH, priority 2007, published 2010) can be followed below.

SMILES strings stand for the structures.

One series concerns the target T1, human PDE5 (Homo sapiens, UniProt O76074).
T1 construct: from tissue; host or cells: human platelets from fresh donor blood (10,000 g supernatant of sonified platelets)
Kind of series: Inhibition of PDE5 activity (modified SPA test, human platelet lysate). The series is classed as biochemical. To be noted: PDE5-containing human platelet lysate, 0.5 μM cGMP substrate, 37° C. As for the experimental part: As a source for human PDE5, platelets were used. For that purpose, 150 ml fresh blood from human donors anticoagulated with citrate [final concentration 0.3% (w/v)] was centrifuged at 200 g for 10 min to obtain the so-called platelet-rich-plasma (PRP) as a supernatant. 1/10 volume of ACD solution (85 mM Na3-citrate, 111 mM D-glucose, 71 mM citric acid, pH 4.4) was added to 9/10 volume of PRP. After centrifugation (1,400 g, 10 min) the cell pellet was resuspended in 3 ml homogenization buffer (NaCl 140 mM, KCl 3.8 mM, EGTA 1 mM, MgCl2 1 mM, Tris-HCl 20 mM, beta-mercaptoethanol 1 mM, pH 8.2) plus protease-inhibitor mix giving rise to the final concentrations of 0.5 mM Pefablock (Roche), 10 μM Leupeptin, 5 μM Trypsininhibitor, 2 mM Benzamidin and 10 μM Pepstatin A. The suspension was sonified and thereafter centrifuged for 15 min at 10,000 g. The resulting supernatant (platelet lysate) was used for enzymatic testings.
PDE5A1 activity is inhibited by the compounds of the invention in a modified SPA (scintillation proximity assay) test, supplied by Amersham Biosciences (see procedural instructions “phosphodiesterase [3H]cAMP SPA enzyme assay, code TRKQ 7090”), carried out in 96-well microtitre plates (MTP's). The test volume is 100 μl and contains 20 mM Tris buffer (pH 7.4), 0.1 mg of BSA (bovine serum albumin)/ml, 5 mM Mg^2+, 1 μM motapizone, 10 nM PDE2 inhibitor BAY-60-7550, 0.5 μM cGMP (including about 50,000 cpm of [3H]cGMP as a tracer), 1 μl of the respective compound dilution in dimethylsulfoxide (DMSO) and sufficient PDE5-containing platelet lysat (10,000×g supernatant, see above) to ensure that 10-20 wt % of the cGMP is converted under the said experimental conditions. […] After a preincubation of 5 min at 37° C., the reaction was started by adding the substrate (cGMP) and the assay was incubated for a further 15 min; after that, it was stopped by adding SPA beads (50 μl). In accordance with the manufacturer's instructions, the SPA beads had previously been resuspended in water, but were then diluted 1:3 (v/v) in water; the diluted solution also contains 3 mM 8-methoxymethyl-3-isobutyl-1-methylxanthine (IBMX) to ensure a complete PDE activity stop. After the beads have been sedimented (>30 min), the MTP's are analyzed in commercially available luminescence detection devices. The corresponding IC50 values of the compounds for the inhibition of PDE activity are determined from the concentration-effect curves by means of non-linear regression.

In the case of `COc1ccc(Cc2nc3c(c4c2[nH]c2ccccc24)[C@H](O)CCC3)cc1F` [Example 83, (R)-6-(3-Fluoro-4-methoxy-benzyl)-2,3,4,7-tetrahydro-1H-indolo[2,3-c]quinolin-1-ol], the melting point lay within 124 to 127 °C. Moreover, inhibition on human PDE5 was half-maximal at 25.1 nM (IC50).
The matching figures for `CC1(C)CC(=O)c2c(nc(Cc3ccc(N)cc3)c3[nH]c4ccccc4c23)C1` [Example 40, 6-(4-Amino-benzyl)-3,3-dimethyl-2,3,4,7-tetrahydro-indolo[2,3-c]quinolin-1-one]: 123 to 124 °C and 11.7 nM.
Taken in the same sequence, the figures for `CCOc1ccc(Cc2nc3c(c4c2[nH]c2ccccc24)C(O)CC(C)(C)C3)cc1` (stereo not shown) [Example 55, 6-(4-Ethoxy-benzyl)-3,3-dimethyl-2,3,4,7-tetrahydro-1H-indolo[2,3-c]quinolin-1-ol] were 182 to 184 °C and 25.1 nM.
The matching figures for `O=C1CCCc2nc(Cc3ccccc3)c3[nH]c4ccccc4c3c21` [Example 3, 6-Benzyl-2,3,4,7-tetrahydro-indolo[2,3-c]quinolin-1-one]: 205 °C and 19.5 nM.
The molecule `NC(=O)Nc1ccc(Cc2nc3c(c4c2[nH]c2ccccc24)C(=O)CCC3)cc1` [Example 76, [4-(1-Oxo-2,3,4,7-tetrahydro-1H-indolo[2,3-c]quinolin-6-ylmethyl)-phenyl]-urea] displayed a melting point of 232 to 234 °C. The molecule further showed an IC50 on human PDE5 of 41.7 nM.
Taken in the same sequence, the figures for `COc1ccc(Cc2c3[nH]c4ccccc4c3c3c([n+]2[O-])CC(C)(C)CC3=O)cc1` [Example 78, 6-(4-Methoxy-benzyl)-3,3-dimethyl-5-oxy-2,3,4,7-tetrahydro-indolo[2,3-c]quinolin-1-one] were 202 °C and 15.5 nM.
The matching figures for `COc1ccc(Cc2nc3c(c4c2[nH]c2ccccc24)C(=O)CC(C)(C)C3)cc1Cl` [Example 15, 6-(3-Chloro-4-methoxy-benzyl)-3,3-dimethyl-2,3,4,7-tetrahydro-indolo[2,3-c]quinolin-1-one]: 209 to 211 °C and 6.31 nM.
Taken in the same sequence, the figures for `CC1(C)Cc2nc(Cc3cccc(Cl)c3)c3[nH]c4ccccc4c3c2[C@@H](O)C1` [Example 94, (S)-6-(3-Chloro-benzyl)-3,3-dimethyl-2,3,4,7-tetrahydro-1H-indolo[2,3-c]quinolin-1-ol] were 124 to 127 °C and 15.1 nM.
`COc1ccc(Cc2nc3c(c4c2[nH]c2ccccc24)C(O)CCC3)cc1` (stereo not shown) [Example 48, 6-(4-Methoxy-benzyl)-2,3,4,7-tetrahydro-1H-indolo[2,3-c]quinolin-1-ol] came in with a melting point of 204 °C. Besides, the IC50 on human PDE5 was 13.2 nM.
The matching figures for `COc1ccc(Cc2nc3c(c4c2[nH]c2ccccc24)C(=O)CC(C)(C)C3)cc1F` [Example 23, 6-(3-Fluoro-4-methoxy-benzyl)-3,3-dimethyl-2,3,4,7-tetrahydro-indolo[2,3-c]quinolin-1-one]: 192 to 195 °C and 1.26 nM.
The molecule `CC1(C)Cc2nc(Cc3ccc(F)cc3)c3[nH]c4ccccc4c3c2C(O)C1` (stereo not shown) [Example 64, 6-(4-Fluoro-benzyl)-3,3-dimethyl-2,3,4,7-tetrahydro-1H-indolo[2,3-c]quinolin-1-ol] displayed a melting point of 187 to 189 °C. Besides, at human PDE5, the IC50 was 28.8 nM.
Taken in the same sequence, the figures for `CC1(C)CC(=O)c2c(nc(Cc3cccc(F)c3)c3[nH]c4ccccc4c23)C1` [Example 34, 6-(3-Fluoro-benzyl)-3,3-dimethyl-2,3,4,7-tetrahydro-indolo[2,3-c]quinolin-1-one] were 184 to 192 °C (dec.) and 4.9 nM.
As to `COc1ccc(Cc2nc3c(c4c2[nH]c2ccccc24)[C@@H](O)CCC3)cc1F` [Example 85, (S)-6-(3-Fluoro-4-methoxy-benzyl)-2,3,4,7-tetrahydro-1H-indolo[2,3-c]quinolin-1-ol], the melting point lay in the range of 125 to 127 °C. This molecule had an IC50 against human PDE5 of 2 nM.
The matching figures for `COc1ccc(Cc2nc3c(c4c2[nH]c2ccccc24)C(O)CCC3)cc1F` (stereo not shown) [Example 71, 6-(3-Fluoro-4-methoxy-benzyl)-2,3,4,7-tetrahydro-1H-indolo[2,3-c]quinolin-1-ol]: 118 to 120 °C and 2.51 nM.
The matching figures for `CC(=O)Nc1ccc(Cc2nc3c(c4c2[nH]c2ccccc24)C(O)CC(C)(C)C3)cc1` (stereo not shown) [Example 63, N-[4-(1-Hydroxy-3,3-dimethyl-2,3,4,7-tetrahydro-1H-indolo[2,3-c]quinolin-6-ylmethyl)-phenyl]-acetamide]: 195 to 197 °C and 46.8 nM.
The matching figures for `COc1ccc(Cc2nc3c(c4c2[nH]c2ccccc24)[C@H](O)CC(C)(C)C3)cc1` [Example 80, (R)-6-(4-Methoxy-benzyl)-3,3-dimethyl-2,3,4,7-tetrahydro-1H-indolo[2,3-c]quinolin-1-ol]: 118 to 120 °C and 100 nM.
Take `COc1ccc(Cc2nc3c(c4c2[nH]c2ccccc24)C(=O)CC(C)(C)C3)c(F)c1F` [Example 31, 6-(2,3-Difluoro-4-methoxy-benzyl)-3,3-dimethyl-2,3,4,7-tetrahydro-indolo[2,3-c]quinolin-1-one]: the melting point is 199 to 200 °C. The molecule further showed an IC50 on human PDE5 of 0.398 nM.
The matching figures for `CC1(C)Cc2nc(Cc3ccc(NC(N)=O)cc3)c3[nH]c4ccccc4c3c2C(O)C1` (stereo not shown) [Example 70, [4-(1-Hydroxy-3,3-dimethyl-2,3,4,7-tetrahydro-1H-indolo[2,3-c]quinolin-6-ylmethyl)-phenyl]-urea]: 236 to 238 °C and 22.9 nM.
Taken in the same sequence, the figures for `Cc1ccc(Cc2nc3c(c4c2[nH]c2ccccc24)C(=O)CC(C)(C)C3)cc1` [Example 25, 3,3-Dimethyl-6-(4-methyl-benzyl)-2,3,4,7-tetrahydro-indolo[2,3-c]quinolin-1-one] were 182 to 184 °C and 2.95 nM.
Taken in the same sequence, the figures for `CC1(C)CC(=O)c2c(nc(Cc3ccc(Cl)cc3)c3[nH]c4ccccc4c23)C1` [Example 20, 6-(4-Chloro-benzyl)-3,3-dimethyl-2,3,4,7-tetrahydro-indolo[2,3-c]quinolin-1-one] were 205 to 207 °C and 10.2 nM.
The molecule `COc1c(F)cc(Cc2nc3c(c4c2[nH]c2ccccc24)C(O)CC(C)(C)C3)cc1F` (stereo not shown) [Example 73, 6-(3,5-Difluoro-4-methoxy-benzyl)-3,3-dimethyl-2,3,4,7-tetrahydro-1H-indolo[2,3-c]quinolin-1-ol] came in with a melting point of 131 to 133 °C. On human PDE5, the IC50 was 0.2 nM.
Taken in the same sequence, the figures for `COc1ccc(Cc2nc3c(c4c2[nH]c2ccccc24)CCC(C)C3)cc1` (stereo not shown) [Example 4, 6-(4-Methoxy-benzyl)-3-methyl-2,3,4,7-tetrahydro-1H-indolo[2,3-c]quinoline] were 186 °C and 3.39 nM.
Taken in the same sequence, the figures for `COc1ccc(Cc2nc3c(c4c2[nH]c2ccccc24)[C@H](O)CC(C)(C)C3)cc1F` [Example 82, (R)-6-(3-Fluoro-4-methoxy-benzyl)-3,3-dimethyl-2,3,4,7-tetrahydro-1H-indolo[2,3-c]quinolin-1-ol] were 164 to 166 °C and 31.6 nM.
The matching figures for `CCOc1ccc(Cc2nc3c(c4c2[nH]c2ccccc24)C(=O)CC(C)(C)C3)cc1` [Example 12, 6-(4-Ethoxy-benzyl)-3,3-dimethyl-2,3,4,7-tetrahydro-indolo[2,3-c]quinolin-1-one]: 179 to 181 °C and 26.9 nM.
`COc1ccc(Cc2nc3c(c4c2[nH]c2ccccc24)CCCC3)cc1F` [Example 30, 6-(3-Fluoro-4-methoxy-benzyl)-2,3,4,7-tetrahydro-1H-indolo[2,3-c]quinoline] displayed a melting point of 118 to 120 °C. On human PDE5, this molecule gave an IC50 of 3.98 nM.
Taken in the same sequence, the figures for `CC1(C)Cc2nc(Cc3cc(F)cc(F)c3)c3[nH]c4ccccc4c3c2[C@H](O)C1` [Example 84, (R)-6-(3,5-Difluoro-benzyl)-3,3-dimethyl-2,3,4,7-tetrahydro-1H-indolo[2,3-c]quinolin-1-ol] were 129 to 131 °C and 398 nM.
